pEC50: −log10 of the molar value. Like-named read-outs stand apart in the source and are kept apart here.
Target: human SSTR2 (Homo sapiens (Human), UniProt P30874)
Experiment: Human SSTR2 intracellular cAMP functional assay for agonists (HTRF)
Type: cell-based
Summary of the method: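 Cells bearing human SSTR2 exposed to compound for 20 minutes at 37 °C; after lysis, cAMP measured by time-resolved fluorescence (HTRF) and converted via a standard curve. EC50 calculated from cAMP versus compound concentration.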

[1] = CHO-K1 cells stably expressing human SSTR2, NKH477-stimulated cAMP, read-out: EC50 (inhibition of cAMP activities via human SST2R)

human SSTR2, sequence (P30874 whole entry): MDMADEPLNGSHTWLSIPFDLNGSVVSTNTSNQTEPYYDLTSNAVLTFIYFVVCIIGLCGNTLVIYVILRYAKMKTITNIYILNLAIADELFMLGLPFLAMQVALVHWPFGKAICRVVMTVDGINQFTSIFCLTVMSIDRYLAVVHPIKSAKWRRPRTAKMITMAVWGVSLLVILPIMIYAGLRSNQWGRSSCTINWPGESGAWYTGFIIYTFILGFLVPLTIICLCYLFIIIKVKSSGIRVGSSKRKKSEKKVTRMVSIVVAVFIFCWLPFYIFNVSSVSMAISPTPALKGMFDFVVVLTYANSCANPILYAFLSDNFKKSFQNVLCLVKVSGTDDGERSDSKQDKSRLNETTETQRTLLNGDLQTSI

Structure (SMILES) | pEC50 [1] | pEC50
Cc1cc(Cl)cc(-c2nnc3ccc(-c4cccc(F)c4O)cc3c2N2CCC(N)CC2)c1 [1-29, 2-[4-(4-aminopiperidin-1-yl)-3-(3-chloro-5-methylphenyl)cinnolin-6-yl]-6-fluorophenol] | > 8.00 | –
NC(=O)c1cc(F)cc(-c2ccc3nnc(-c4cc(Cl)cc(Cl)c4)c(N4CCC(N)CC4)c3c2)c1 [1-30, 3-[4-(4-aminopiperidin-1-yl)-3-(3,5-dichlorophenyl)cinnolin-6-yl]-5-fluorobenzamide] | > 8.00 | –
NC(=O)c1cc(F)cc(-c2ccc3nnc(-c4cc(Cl)cc(Cl)c4)c(N4CCC(NC5COC5)CC4)c3c2)c1 [1-31, 3-[3-(3,5-dichlorophenyl)-4-{4-[(oxetan-3-yl)amino]piperidin-1-yl}cinnolin-6-yl]-5-fluorobenzamide] | > 8.00 | –
NC(=O)c1cc(F)cc(-c2ccc3nnc(-c4cc(Cl)cc(Cl)c4)c(N4CCC(NCCC(F)(F)F)CC4)c3c2)c1 [1-32, 3-[3-(3,5-dichlorophenyl)-4-{4-[(3,3,3-trifluoropropyl)amino]piperidin-1-yl}cinnolin-6-yl]-5-fluorobenzamide] | > 8.00 | –
NC(=O)c1cc(F)cc(-c2ccc3nnc(-c4cc(Cl)cc(Cl)c4)c(N4CCC(NCCF)CC4)c3c2)c1 [1-33, 3-[3-(3,5-dichlorophenyl)-4-{4-[(2-fluoroethyl)amino]piperidin-1-yl}cinnolin-6-yl]-5-fluorobenzamide] | > 8.00 | –
NCC1CN(c2c(-c3cc(Cl)cc(Cl)c3)nnc3ccc(-c4cc(F)cc(C(N)=O)c4)cc23)C1 [1-34, 3-{4-[3-(aminomethyl)azetidin-1-yl]-3-(3,5-dichlorophenyl)cinnolin-6-yl}-5-fluorobenzamide] | > 8.00 | –
Cc1cc(F)cc(-c2cnc3ccc(-c4cccc(C#N)c4O)cc3c2N2CCC(N)CC2)c1 [2-1, 3-[4-(4-aminopiperidin-1-yl)-3-(3-fluoro-5-methylphenyl)quinolin-6-yl]-2-hydroxybenzonitrile] | > 8.00 | –
N#Cc1cccc(-c2ccc3ncc(-c4cc(F)cc(F)c4)c(N4CCC(N)CC4)c3c2)c1O [2-2, 3-[4-(4-amino-piperidin-1-yl)-3-(3,5-difluoro-phenyl)-quinolin-6-yl]-2-hydroxy-benzonitrile] | > 8.00 | –
N#Cc1cccc(-c2ccc3ncc(-c4cc(F)cc(F)c4)c(N4CCC(N)CC4)c3c2)c1 [2-5, 3-[4-(4-aminopiperidin-1-yl)-3-(3,5-difluorophenyl)quinolin-6-yl]benzonitrile] | > 8.00 | –
NC1CCN(c2c(-c3cc(F)cc(F)c3)cnc3ccc(-c4ccccc4O)cc23)CC1 [2-6, 2-[4-(4-aminopiperidin-1-yl)-3-(3,5-difluorophenyl)quinolin-6-yl]phenol] | > 8.00 | –
Cc1cc(F)cc(-c2cnc3ccc(-c4cccc(C(N)=O)n4)cc3c2N2CCC(N)CC2)c1 [2-7, 6-[4-(4-aminopiperidin-1-yl)-3-(3-fluoro-5-methylphenyl)quinolin-6-yl]pyridine-2-carboxamide] | > 8.00 | –
Cc1cc(F)cc(-c2cnc3ccc(-c4cccc5[nH]c(=O)[nH]c45)cc3c2N2CCC(N)CC2)c1 [2-8, 4-[4-(4-aminopiperidin-1-yl)-3-(3-fluoro-5-methylphenyl)quinolin-6-yl]-2,3-dihydro-1H-1,3-benzodiazol-2-one] | > 8.00 | –
Cc1cc(F)cc(-c2cnc3ccc(-c4ccc5[nH]c(=O)[nH]c5c4)cc3c2N2CCC(N)CC2)c1 [2-9, 5-[4-(4-aminopiperidin-1-yl)-3-(3-fluoro-5-methylphenyl)quinolin-6-yl]-2,3-dihydro-1H-1,3-benzodiazol-2-one] | > 8.00 | –
N#Cc1cc(F)cc(-c2ccc3ncc(-c4cc(F)cc(F)c4)c(N4CCC(N)CC4)c3c2)c1O [2-10, 3-[4-(4-aminopiperidin-1-yl)-3-(3,5-difluorophenyl)quinolin-6-yl]-5-fluoro-2-hydroxybenzonitrile] | > 8.00 | –
NC1CCN(c2c(-c3cc(Cl)cc(Cl)c3)cnc3ccccc23)CC1 [2-11, 1-[3-(3,5-dichlorophenyl)quinolin-4-yl]piperidin-4-amine] | – | 7.00 to 8.00
Cc1cc(F)cc(-c2cnc3ccc(-c4cccc(C#N)c4O)cc3c2N2CC(CN)C2)c1 [2-12, 3-{4-[3-(aminomethyl)azetidin-1-yl]-3-(3-fluoro-5-methylphenyl)quinolin-6-yl}-2-hydroxybenzonitrile] | – | 7.00 to 8.00
Cc1cc(Cl)cc(-c2cnc3ccc(-c4cccc(C#N)c4O)cc3c2N2CC(CN)C2)c1 [2-13, 3-{4-[3-(aminomethyl)azetidin-1-yl]-3-(3-chloro-5-methylphenyl)quinolin-6-yl}-2-hydroxybenzonitrile] | – | 7.00 to 8.00
Cc1cc(F)cc(-c2cnc3ccc(-c4cc(F)cc(C(N)=O)c4)cc3c2N2CC(C)(CN)C2)c1 [2-14, 3-{4-[3-(aminomethyl)-3-methylazetidin-1-yl]-3-(3-fluoro-5-methylphenyl)quinolin-6-yl}-5-fluorobenzamide] | – | 7.00 to 8.00

Structure (SMILES) | pEC50 [1] | pEC50
Cc1cc(Cl)cc(-c2cnc3ccc(-c4cc(F)cc(C#N)c4O)cc3c2N2CC(C)(CN)C2)c1 [2-15, 3-{4-[3-(aminomethyl)-3-methylazetidin-1-yl]-3-(3-chloro-5-methylphenyl)quinolin-6-yl}-5-fluoro-2-hydroxybenzonitrile] | 6.00 to 7.00 | –
Cc1cc(F)cc(-c2cnc3ccc(-c4cc(F)cc(C#N)c4O)cc3c2N2CCC(N)CC2)c1 [2-16, 3-[4-(4-aminopiperidin-1-yl)-3-(3-fluoro-5-methylphenyl)quinolin-6-yl]-5-fluoro-2-hydroxybenzonitrile] | > 8.00 | –
Cc1cc(F)cc(-c2cnc3ccc(-c4cc(F)cc(C#N)c4O)cc3c2N2CC(CN)C2)c1 [2-17, 3-{4-[3-(aminomethyl)azetidin-1-yl]-3-(3-fluoro-5-methylphenyl)quinolin-6-yl}-5-fluoro-2-hydroxybenzonitrile] | 7.00 to 8.00 | –
CCNCC1CN(c2c(-c3cc(C)cc(F)c3)cnc3ccc(-c4cc(F)cc(C#N)c4O)cc23)C1 [2-18, 3-(4-{3-[(ethylamino)methyl]azetidin-1-yl}-3-(3-fluoro-5-methylphenyl)quinolin-6-yl)-5-fluoro-2-hydroxybenzonitrile] | – | > 8.00
N#Cc1cc(F)cc(-c2ccc3ncc(-c4cc(F)cc(Cl)c4)c(N4CC(CN)C4)c3c2)c1O [2-21, 3-{4-[3-(aminomethyl)azetidin-1-yl]-3-(3-chloro-5-fluorophenyl)quinolin-6-yl}-5-fluoro-2-hydroxybenzonitrile] | – | 7.00 to 8.00
Cc1cc(Cl)cc(-c2cnc3ccc(-c4cc(F)cc(C#N)c4O)cc3c2N2CC(CN)C2)c1 [2-22, 3-{4-[3-(aminomethyl)azetidin-1-yl]-3-(3-chloro-5-methylphenyl)quinolin-6-yl}-5-fluoro-2-hydroxybenzonitrile] | – | 7.00 to 8.00
N#Cc1cc(F)cc(-c2ccc3ncc(-c4cc(F)cc(F)c4)c(N4CC(CN)C4)c3c2)c1O [2-23, 3-{4-[3-(aminomethyl)azetidin-1-yl]-3-(3,5-difluorophenyl)quinolin-6-yl}-5-fluoro-2-hydroxybenzonitrile] | – | 6.00 to 7.00
Cc1cc(F)cc(-c2cnc3ccc(-c4cc(F)cc(C#N)c4O)cc3c2N2CC(CNCCF)C2)c1 [2-24, 5-fluoro-3-[3-(3-fluoro-5-methylphenyl)-4-(3-{[(2-fluoroethyl)amino]methyl}azetidin-1-yl)quinolin-6-yl]-2-hydroxybenzonitrile] | > 8.00 | –
Cc1cc(F)cc(-c2cnc3ccc(-c4cc(F)cc(C#N)c4O)cc3c2N2CC(CNC(C)C)C2)c1 [2-25, 5-fluoro-3-[3-(3-fluoro-5-methylphenyl)-4-(3-{[(propan-2-yl)amino]methyl}azetidin-1-yl)quinolin-6-yl]-2-hydroxybenzonitrile] | > 8.00 | –
CCNCC1CN(c2c(-c3cc(C)cc(F)c3)cnc3ccc(-c4cc(F)cc(C(N)=O)c4)cc23)C1 [2-26, 3-(4-{3-[(ethylamino)methyl]azetidin-1-yl}-3-(3-fluoro-5-methylphenyl)quinolin-6-yl)-5-fluorobenzamide] | > 8.00 | –
COCCNCC1CN(c2c(-c3cc(C)cc(F)c3)cnc3ccc(-c4cc(F)cc(C#N)c4O)cc23)C1 [2-27, 3-[3-(3-fluoro-5-methylphenyl)-4-(3-{[(2-methoxyethyl)amino]methyl}azetidin-1-yl)quinolin-6-yl]-5-fluoro-2-hydroxybenzonitrile] | > 8.00 | –
Cc1cc(F)cc(-c2cnc3ccc(-c4cc(F)cc(C#N)c4O)cc3c2N2CC(CNCCCF)C2)c1 [2-28, 5-fluoro-3-[3-(3-fluoro-5-methylphenyl)-4-(3-{[(3-fluoropropyl)amino]methyl}azetidin-1-yl)quinolin-6-yl]-2-hydroxybenzonitrile] | > 8.00 | –
Cc1cc(F)cc(-c2cnc3ccc(-c4cc(F)cc(C#N)c4O)cc3c2N2CC(CNC3CC3)C2)c1 [2-29, 3-[4-(3-cyclopropylaminomethyl-azetidin-1-yl)-3-(3-fluoro-5-methyl-phenyl)-quinolin-6-yl]-5-fluoro-2-hydroxy-benzonitrile] | > 8.00 | –
Cc1cc(F)cc(-c2cnc3ccc(-c4cc(F)cc(C#N)c4O)cc3c2N2CC(CN3CCCC3)C2)c1 [2-30, 5-fluoro-3-[3-(3-fluoro-5-methyl-phenyl)-4-(3-pyrrolidin-1-ylmethyl-azetidin-1-yl)-quinolin-6-yl]-2-hydroxy-benzonitrile] | > 8.00 | –
CCCNCC1CN(c2c(-c3cc(C)cc(F)c3)cnc3ccc(-c4cc(F)cc(C#N)c4O)cc23)C1 [2-31, 5-fluoro-3-[3-(3-fluoro-5-methylphenyl)-4-{3-[(propylamino)methyl]azetidin-1-yl}quinolin-6-yl]-2-hydroxybenzonitrile] | > 8.00 | –
Cc1cc(F)cc(-c2cnc3ccc(-c4cc(F)cc(C#N)c4O)cc3c2N2CC(CNC3COC3)C2)c1 [2-33, 5-fluoro-3-[3-(3-fluoro-5-methylphenyl)-4-(3-{[(oxetan-3-yl)amino]methyl}azetidin-1-yl)quinolin-6-yl]-2-hydroxybenzonitrile] | – | 7.00 to 8.00
Cc1cc(F)cc(-c2cnc3ccc(-c4cc(F)cc(C#N)c4O)cc3c2N2CC(CN3CCOCC3)C2)c1 [2-35, 5-fluoro-3-[3-(3-fluoro-5-methylphenyl)-4-[3-(morpholin-4-ylmethyl)azetidin-1-yl]quinolin-6-yl]-2-hydroxybenzonitrile] | – | 6.00 to 7.00

Reference: patent US10351547B2, “Somatostatin modulators and uses thereof” (priority 2016, dated 2019)
